# Publication PMC6747323, “Discovery of Novel Angiotensin-Converting Enzyme Inhibitory Peptides from Todarodes pacificus and Their Inhibitory Mechanism: In Silico and In Vitro Studies” (International Journal of Molecular Sciences, 2019)
# Like-named read-outs stand apart in the source and are kept apart here. Ends that are not written are not given here. Peptide text beside a SMILES is read from it.
# How the values were obtained:
# ACE [1] = test system: ACE; parameters: method as in AHTpin and BIOPEP-UWM databases; settings: ref AHTpin and BIOPEP-UWM databases, cited from earlier work
# ACE from rabbit lungs = biological target: T1, ACE from rabbit lungs (Oryctolagus cuniculus, UniProt P12822); experiment: In vitro ACE inhibitory activity (HHL substrate, hippuric acid by UPLC); type: biochemical; settings: synthesized new peptides, read-out: pIC50 (ACE inhibition) (converted)
# T1 construct: The ACE from rabbit lungs; purchased Sigma Chemical Company (St. Louis, MO, USA); host or cells: rabbit lung tissue
# T1 sequence (P12822 34-1310): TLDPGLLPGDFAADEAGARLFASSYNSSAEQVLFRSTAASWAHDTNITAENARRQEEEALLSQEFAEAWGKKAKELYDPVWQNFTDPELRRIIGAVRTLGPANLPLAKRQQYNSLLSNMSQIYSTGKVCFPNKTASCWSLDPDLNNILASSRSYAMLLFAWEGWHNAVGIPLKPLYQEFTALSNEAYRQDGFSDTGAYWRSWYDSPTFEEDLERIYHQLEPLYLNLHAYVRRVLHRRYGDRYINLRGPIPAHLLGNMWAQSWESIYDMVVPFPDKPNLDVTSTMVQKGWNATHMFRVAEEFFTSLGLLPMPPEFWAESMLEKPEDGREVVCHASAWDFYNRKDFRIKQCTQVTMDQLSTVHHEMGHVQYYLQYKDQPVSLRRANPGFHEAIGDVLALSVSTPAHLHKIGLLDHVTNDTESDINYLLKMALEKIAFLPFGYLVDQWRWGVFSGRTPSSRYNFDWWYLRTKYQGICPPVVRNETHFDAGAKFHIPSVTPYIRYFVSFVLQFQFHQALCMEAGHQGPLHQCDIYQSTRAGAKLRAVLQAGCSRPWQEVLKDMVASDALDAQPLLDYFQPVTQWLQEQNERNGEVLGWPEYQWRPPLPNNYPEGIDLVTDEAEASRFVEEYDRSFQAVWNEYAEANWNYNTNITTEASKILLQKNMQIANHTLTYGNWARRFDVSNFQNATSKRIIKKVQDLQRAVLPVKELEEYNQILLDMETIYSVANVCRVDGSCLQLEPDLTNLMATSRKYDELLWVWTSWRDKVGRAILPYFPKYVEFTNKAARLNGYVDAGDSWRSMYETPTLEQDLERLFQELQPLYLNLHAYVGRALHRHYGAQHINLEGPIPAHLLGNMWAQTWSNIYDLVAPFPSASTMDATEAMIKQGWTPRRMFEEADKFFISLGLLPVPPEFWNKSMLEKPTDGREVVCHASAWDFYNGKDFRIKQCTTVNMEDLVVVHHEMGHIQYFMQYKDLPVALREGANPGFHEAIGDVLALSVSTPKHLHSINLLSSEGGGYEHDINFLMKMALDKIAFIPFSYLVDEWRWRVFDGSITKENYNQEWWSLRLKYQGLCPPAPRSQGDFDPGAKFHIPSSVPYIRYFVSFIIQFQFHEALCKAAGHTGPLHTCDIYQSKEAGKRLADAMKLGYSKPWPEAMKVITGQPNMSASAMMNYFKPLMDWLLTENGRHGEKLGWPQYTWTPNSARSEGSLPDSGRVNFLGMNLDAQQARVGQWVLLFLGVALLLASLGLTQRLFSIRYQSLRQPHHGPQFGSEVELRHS
# Source text: The tested peptides from t hmyosin heavy chain in Todarodes pacificus were provided by Anhui Guoping Pharmaceutical Co., Ltd. (Hefei, China). The ACE from rabbit lungs, hippuryl-histidyl-leucine (HHL), and hippuric acid (HA) were purchased from the Sigma Chemical Company (St. Louis, MO, USA). The solvents for high performance liquid chromatography (HPLC) including acetonitrile and trifluoroacetic acid (TFA) were provided by Merck (Darmstadt, Germany). All the other reagents and chemicals used were of analytical grade.
# The ACE inhibitory activity analysis was performed based on Yu et al. with some modifications. HHL was dissolved in 100 mM sodium borate buffer (pH 8.3) to achieve a final concentration of 5.8 mM. A reaction mixture containing 50 μL of ACE solution (100 mU/mL) and 100 μL of sample were pre-incubated at 37 °C for 5 min. Subsequently, 150 μL HHL was added and the mixture was incubated at 37 °C for 60 min. The reaction was terminated by the addition of 200 μL of 0.1 M HCl. […] The amount of HA was determined via an ultra-performance liquid chromatography on a Waters Acquity UPLC BEH C18 column (1.7 μm, 2.1 mm × 100 mm). […] The degree of ACE inhibition was calculated as follows:(1) ACE inhibition activity (%)=A−B/A×100% where A was the HA concentration of a reaction containing ACE without peptide, B was the HA concentration of a reaction in the presence of ACE and peptide. […]
# [2] = test system: spontaneously hypertensive rats; parameters: method as in PMID 28102435; settings: cited from earlier work
# ACE [3] = settings: cited from earlier work
# [4] = Table S1, plant proteases without PREP
# [5] = Table S2, plant proteases with PREP
Compound,pIC50 (ACE [1]; [4]),also measured
Met-Tyr [MY],3.71,
Ala-Val-Pro [AVP],,pIC50 (ACE [1]; [5]): 3.47
Ala-Gly [AG],2.60,
Glu-Tyr [EY],5.57,
Ile-Arg [IR],3.16,
Met-Phe [MF],6.04,
"NCCCC[C@H](NC(=O)[C@@H]1CCCN1C(=O)[C@@H]1CCCN1C(=O)[C@@H](N)CC(N)=O)C(=O)O [NPPK, Asn-Pro-Pro-Lys] (H-NPPK-OH)",,IC50 (ACE from rabbit lungs): 38.9 µM
Ser-Phe [SF],3.89,
Asp-Tyr [DY],4.00,
KVLPVPQ,,Antihypertensive effect [2]: effective; ACE inhibitory activity in vitro (ACE [3]; β-casein fragment): relatively weak
Gln-Lys [QK],3.05,
Ile-Leu,4.26,
Ser-Gly [SG],2.07,
Asp-Gly [DG],5.67,
Val-Phe [VF],5.04,
Ala-Pro [AP],,pIC50 (ACE [1]; [5]): 4.54
Ala-Ser-Leu [ASL],3.99,
Ile-Phe [IF],4.18,
Met-Asn-Pro-Pro-Lys (MNPPK; printed: Met-Asn-Pro-Pro-Lys),,pIC50 (ACE inhibition) (ACE [3]; from porcine skeletal muscle hydrolysate): 3.02
Thr-Phe [TF],4.74,

Compound,pIC50 (ACE [1]; [4]),also measured
Pro-Leu [PL],3.47,
Trp-Leu [WL],4.52,
Ala-Phe [AF],3.78,
Glu-Trp [EW],3.86,
Glu-Gly [EG],2.00,
Met-Gly [MG],2.32,
Asn-Tyr [NY],4.49,
Ile-Tyr [IY],5.68,
Ala-Ile-Pro [AIP],,pIC50 (ACE [1]; [5]): 3.46
Ala-Tyr [AY],4.85,
Thr-Pro [TP],,pIC50 (ACE [1]; [5]): 3.54
Val-Pro [VP],,pIC50 (ACE [1]; [5]): 3.38
Ile-Glu-Lys-Pro (IEKP; printed: Ile-Glu-Lys-Pro),,IC50 (ACE inhibition) (ACE [3]; peptide derived from catfish myofibrillar protein): 2.1 µg/mL
Lys-Pro [KP],,pIC50 (ACE [1]; [5]): 4.66
Ala-His [AH],3.28,
Val-Ala-Phe [VAF],4.45,
Ser-Thr [ST],5.39,
Asn-Gly [NG],1.92,
Pro-Pro-Lys [PPK],3.00,
